Legend:
Assay type in all cases: cell-based, human
[1] = test system: aromatase activity in SK-BR-3 breast cancer cells; assay: Tritiated water-release assay in SK-BR-3 cells (additional compounds); settings: for IC50: dose-response (FIG. 13), read-out: IC50 (μM), suppression of aromatase activity in SK-BR-3 breast cancer cells
Protocol: Cell Culture. AR and SK-BR-3 cells were obtained from ATCC (Rockville, Md.). SK-BR-3 cells were maintained in phenol red-free custom media (MEM, Earle's salts, 1.5× amino acids, 2× non-essential amino acids, L-glutamine, 1.5× vitamins, Gibco BRL) supplemented with 10% fetal bovine serum (FBS), 2 mM L-glutamine and 20 mg/L gentamycin. […] Fetal bovine serum was heat inactivated for 30 min in a 56° C. water bath before use. Cell cultures were grown at 37° C., in a humidified atmosphere of 5% CO2 in a Hereaus CO2 incubator. For all experiments, cells were plated in 6 well plates and grown to subconfluency. Before treatment, the media was changed to a defined one containing DMEM/F12 media (Sigma) with 1.0 mg/mL human albumin (OSU Hospital Pharmacy), 5.0 mg/L human transferin and 5.0 mg/L bovine insulin.
Tritiated water-release assay in JAR and SK-BR-3 cell lines. Measurement of aromatase enzyme activity was based on the tritium water release assay. Cells in six well plates were treated with 0.1% DMSO (control), and inhibitors at the indicated concentrations. After 24 hours, the cells were incubated 3 hours (SK-BR-3 cells) or 1 hour (JAR cells) with fresh media along with 100 nM [1β-^3H]-androst-4-ene-3,17-dione (1 μCi). Subsequently, the reaction mixture was removed, and proteins were precipitated using 10% trichloroacetic acid at 42° C. for 20 min. After a brief centrifugation, the media was extracted three times with an equal amount of chloroform to remove remaining substrate and further treated with dextran-treated charcoal. After centrifugation, a 250-μl aliquot containing the product was counted in 5 ml of liquid scintillation mixture. Results were corrected for blanks and for the cell contents of culture flasks, and results were expressed as picomoles of ^3H2O formed per hour incubation time per million live cells (pmol/h/10^6 cells). To determine the amount of cells in each flask, the cells were lysed and analyzed using the diphenylamine DNA assay adapted to a 96-well plate. IC50 sigmoidal dose-response data were analyzed with Microsoft Excel and the Graphpad Prism (Version 3.0) program.
Diphenylamine DNA Assay To determine the amount of viable cells in each flask, the cells were lysed with 0.5N NaOH aqueous solution and analyzed using the diphenylamine DNA assay adapted to a 96-well plate. DNA standards (0-30 μg) were prepared using double-stranded DNA reconstituted in PBS and added in triplicates directly to the wells. A uniform cell suspension was prepared from the 6 well plate in 300 μl 0.5N NaOH aqueous solution, and 60 μl of the unknown samples were added in triplicates to separate wells. […] This solution (60 μl) was added to each well along with 100 μl of a 4% diphenylamine solution in glacial acetic acid. The plates were incubated at 37° C. for 24 hours. After centrifugation, 100 μl supernatant of each well was transferred to a new 96 well plate, and the OD595 was measured using a microplater reader. The DNA concentration was determined by extrapolation to the standard curve and the amount of cells/well was calculated using the equation: 1 cell≈7 pg DNA.

SK-BR-3 cells [2] = assay: Cell viability analysis (MTT assay) in SK-BR-3 cells; settings: 10 μM (FIG. 15)
Protocol: Cell Viability Analysis. The effect of nimesulides derivatives on SK-BR-3 cell viability was assessed by using the 3-(4,5-dimethylthiazol-2-yl)-2,5-diphenyl-2H-tetrazolium bromide assay in six replicates. Cells were grown in custom media in 96-well, flat-bottomed plates for 24 h, and were exposed to various concentrations of nimesulide derivatives dissolved in DMSO (final concentration ≦0.1%) in define media for different time intervals. Controls received DMSO vehicle at a concentration equal to that in drug-treated cells. The medium was removed, replaced by 200 μl of 0.5 mg/ml of 3-(4,5-dimethylthiazol-2-yl)-2,5-diphenyl-2H-tetrazolium bromide in fresh media, and cells were incubated in the CO2 incubator at 37° C. for 2 h. Supernatants were removed from the wells, and the reduced 3-(4,5-dimethylthiazol-2-yl)-2,5-diphenyl-2H-tetrazolium bromide dye was solubilized in 200 μl/well DMSO. Absorbance at 570 nm was determined on a plate reader.

SK-BR-3 cells [3] = assay: Analysis of apoptosis (single-stranded DNA ELISA) in SK-BR-3 cells; settings: 5 μM, 24 hours (FIG. 16)
Protocol: Analysis of apoptosis. Apoptosis was determined by selective denaturation of DNA in apoptotic cells by formamide and detection of denatured DNA with a monoclonal antibody to single-stranded DNA using an ELISA kit (CHEMICON, Temecula, Calif.). Cells were plated in a 96-well flat bottom plate from 0.5×10^4 to 1×10^4 cells/well in custom media. Cells were allowed to adhere to wells overnight. Following incubation, compounds were made up in define media and a 5 μM screen was performed in each cell line with respective compounds in triplicate for 24 hours. Following treatment, the plate was centrifuged at 200×g for 5 min, media was removed followed by the addition of 200 μl of fixative. The plate was incubated for 30 min at 37° C., at which point the fixative was removed and the plate dried for 1-2 hours at room temperature. Fifty microliters of formamide was added to each well following a brief incubation at room temperature for 10 min. The DNA in apoptotic cells was denatured by heating the plate for 10 min, then briefly cooling the plate for 5 min at 4° C. following removal of formamide. The plate was rinsed three times with 200 μl of PBS following one hour incubation at 37° C. with 200 μl of 3% blocking agent. After removal of the blocking agent, 100 μl of antibody mixture were added to each well for 30 min at room temperature. The plate was washed three times with 1× wash buffer using 250 μl of wash buffer/well followed by the addition of 200 μl of ABTS solution added to each well for a 15-60 minute incubation. The reaction was stopped by the addition of 100 μl of a stop solution added to each well and absorbance was measured at 405 nm on a SpectroMax 340 UV PlateReader.

Row | Structure (SMILES) | IC50 [1] | cell cytotoxicity (MTT) (SK-BR-3 cells [2]) | apoptotic effects (SK-BR-3 cells [3]) | increase in activity compared with nimesulide ([1]; from IC50 values)
1 | CN(c1ccc([N+](=O)[O-])cc1OCc1ccccc1)S(C)(=O)=O [Compound 26f, N-methyl-N-(2-benzyloxy-4-nitrophenyl) methanesulfonamide] | 0.81 ± 0.29 µM | did not cause significant cell cytotoxicity | do not produce apoptotic effects | –
2 | CN(c1ccc([N+](=O)[O-])cc1OCc1ccc2ccccc2c1)S(C)(=O)=O [Compound 28c, N-methyl-N-[2-(β-naphthylmethoxy) 4-nitrophenyl]methanesulfonamide] | 2.68 ± 0.91 µM | did not cause significant cell cytotoxicity | do not produce apoptotic effects | –
3 | Cc1ccc(COc2cc([N+](=O)[O-])ccc2N(C)S(C)(=O)=O)cc1 [Compound 30c, N-methyl-N-[2-(4′-methylbenzyloxy)-4-nitrophenyl]methanesulfonamide] | 2.33 ± 0.66 µM | did not cause significant cell cytotoxicity | do not produce apoptotic effects | –
4 | CN(c1ccc([N+](=O)[O-])cc1OCc1ccc(F)cc1)S(C)(=O)=O [Compound 33c, N-methyl-N-[2-(4′-fluorobenzyloxy)-4-nitrophenyl]methanesulfonamide] | 1.78 ± 0.63 µM | did not cause significant cell cytotoxicity | do not produce apoptotic effects | –

The next compounds have a lower IC50 [1] than those just listed; values first:

Row | IC50 [1] | Structure (SMILES) | cell cytotoxicity (MTT) (SK-BR-3 cells [2]) | apoptotic effects (SK-BR-3 cells [3]) | increase in activity compared with nimesulide ([1]; from IC50 values)
5 | 0.49 ± 0.14 µM | CN(c1ccc([N+](=O)[O-])cc1OCc1ccc([N+](=O)[O-])cc1)S(C)(=O)=O [Compound 27c, N-methyl-N-[2-(4′-nitrobenzyloxy)-4-nitrophenyl]methanesulfonamide] | did not cause significant cell cytotoxicity | do not produce apoptotic effects | –
6 | 0.33 ± 0.15 µM | CN(c1ccc([N+](=O)[O-])cc1OCc1ccccc1-c1ccccc1)S(C)(=O)=O [Compound 29c, N-methyl-N-[2-(2′-phenylbenzyloxy)-4-nitrophenyl]methanesulfonamide] | did not cause significant cell cytotoxicity | do not produce apoptotic effects | eighty fold increase

Reference: patent US7741520B2, “Sulfonanilide analogs as selective aromatase modulators (SAMs)” (The Ohio State University Research Foundation, priority 2006, dated 2010)
